The conditions of the data set: Liquid, Ebulliometric method (Recirculating still).

± gives the expanded uncertainty stated by the source.

We go through three molecules from the NIST ThermoML archive (doi:10.1021/je300835h).

A word on the vapor or sublimation pressure: it is the pressure of vapour in equilibrium with the condensed phase.

For `CCCCO` [butan-1-ol], the “vapor or sublimation pressure” value (390.65 K) was determined as 101.3 ± 1 kPa.
As to `CO` [methanol], the “vapor or sublimation pressure” value (337.75 K) came to 101.3 ± 1 kPa.
Consider `C=COC(C)=O` [vinyl acetate], for which the “vapor or sublimation pressure” value (345.75 K) was found to be 101.3 ± 1 kPa.
